Assay results published in BindingDB's records for doi:10.1021/jm051104t (University of Minnesota, 2006).

Test: Cytotoxicity against HEK293 cells transfected with recombinant AOR by MTT assay

| SMILES | IC50 |
| --- | --- |
| CC1=C(CO)C2=C(C)C3(CC3)[C@](C)(O)C(=O)C2=C1 | 1420 nM |
| CC1=CC2=C(C)C3(CC3)[C@@](C)(O)C(=O)C2=C1 [ACYLFULVENE] | 95 nM |
| CC1=CC2=C(C)C3(CC3)[C@](C)(O)C(=O)C2=C1 | 5000 nM |
| CC1=C(CO)C2=C(C)C3(CC3)[C@@](C)(O)C(=O)C2=C1 [IROFULVEN] | 55 nM |
